Here are results for 63 compounds from BindingDB's records for doi:10.7270/Q2TX3CTT (Broad Institute, 2010).

Structures can show the parent of a compound that is named as a salt.

The EC50 is the concentration giving half of the maximal effect. Read a high EC50 as a less potent agent.

Chain of Glycogen synthase kinase-3 beta (P49841 whole entry): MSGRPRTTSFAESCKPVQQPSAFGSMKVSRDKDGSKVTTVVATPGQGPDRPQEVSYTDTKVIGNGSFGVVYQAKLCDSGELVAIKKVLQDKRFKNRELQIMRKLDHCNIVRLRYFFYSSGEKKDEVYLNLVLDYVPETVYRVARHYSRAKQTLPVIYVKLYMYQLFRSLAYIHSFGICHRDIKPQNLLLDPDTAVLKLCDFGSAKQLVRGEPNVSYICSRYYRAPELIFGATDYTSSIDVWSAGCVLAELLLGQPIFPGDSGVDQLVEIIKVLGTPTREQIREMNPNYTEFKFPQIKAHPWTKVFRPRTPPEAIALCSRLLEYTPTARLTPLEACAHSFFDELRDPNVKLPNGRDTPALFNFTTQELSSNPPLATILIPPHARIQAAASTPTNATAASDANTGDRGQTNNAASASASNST

This test concerns the target Glycogen synthase kinase-3 beta (Homo sapiens, UniProt P49841). Description: concentration-response blocking of human GSK3B – biochemical, luminescence, cell-free homogeneous, retest, dose response (AID 434954).
Take `CCn1cc(CN2CCC(n3nccc3NC(=O)CCCc3ccccc3)CC2)cn1` [N-[2-[1-[(1-ethylpyrazol-4-yl)methyl]piperidin-4-yl]pyrazol-3-yl]-4-phenyl-butanamide]: the 50% effective concentration (EC50) was > 300 µM.

As to `OCCCNc1cc(-c2ccnc(Nc3cccc(Cl)c3)n2)ccn1`, the EC50 came to 0.212 µM.

In turn, `CC1CN(c2nc(Nc3ccccc3)nc(N)c2[N+](=O)[O-])CC(C)O1` (stereo not drawn) registered an EC50 of 35.9 µM.

Turning to `Cc1c([CH+][N-]NC(=O)COc2ccccc2[N+](=O)[O-])c2ccccc2n1C` [N-[(1,2-dimethylindol-3-yl)methylideneamino]-2-(2-nitrophenoxy)acetamide], the half-maximal effective concentration (EC50) is > 300 µM.

Consider `CCOC(=O)c1cnc2ccc(OC)cc2c1NCCc1ccc(OC)c(OC)c1`, for which the EC50 is > 300 µM.

The compound `O=NCc1ccc(Sc2ccccc2)c([N+](=O)[O-])c1` [N-[(3-nitro-4-phenylsulfanylphenyl)methylidene]hydroxylamine] gave an EC50 of 39.3 µM.

In the case of `COc1cc(C=C2SC(Nc3ccc(O)cc3)=NC2=O)cc(OC)c1O` [MLS000715043], the EC50 is > 300 µM.

`COC(=O)c1nnn(-c2nonc2N)c1-c1cccs1` [1-(4-amino-1,2,5-oxadiazol-3-yl)-5-thiophen-2-yl-4-triazolecarboxylic acid methyl ester] displayed an EC50 of 26.2 µM.

For the compound `COC(=O)C1=CN(Cc2ccc(OC)c(OC)c2)C=C(C(=O)OC)C1c1ccccc1F` [1-(3,4-Dimethoxy-benzyl)-4-(2-fluoro-phenyl)-1,4-dihydro-pyridine-3,5-dicarboxylic acid dimethyl ester], the EC50 was > 300 µM.

On to `CCN(CC)CCCNc1nc(N)c([N+](=O)[O-])c(NCCO)n1` [SMR000436737], for which the concentration giving a half-maximal response (EC50) was > 300 µM.

In turn, `S=c1[nH]c(-c2ccccc2)cn1N=Cc1ccncc1` showed an EC50 of 140 µM.

In the case of `CC(=O)Nc1ccc(C(=O)OCCCOC(=O)c2ccc(NC(C)=O)cc2)cc1`, the EC50 is > 300 µM.

As for `NC(=O)C1CCN(C(=O)c2ccc(Oc3cc(Cl)cc(Cl)c3)o2)CC1` [1-[5-[3,5-bis(chloranyl)phenoxy]furan-2-yl]carbonylpiperidine-4-carboxamide], the EC50 was > 300 µM.

Turning to `CCCCCCSc1ccc([C@H]2N[C@@](CC(C)C)(C(=O)OC)[C@H]3C(=O)N(C)C(=O)[C@@H]23)cc1` [SMR000814394], the EC50 is > 300 µM.

For the compound `CNC(=O)c1ccsc1NC(=O)C1CCN(S(=O)(=O)c2ccc(Cl)s2)CC1` [SMR000812824], the EC50 was > 300 µM.

With `COCCOC(=O)C1C(C)=Nc2ncnn2C1c1ccccc1` (stereo not drawn), the EC50 was > 300 µM.

For the compound `CCOC(=O)c1c(C)[nH]c(C(=O)CSc2nccc(C)n2)c1C` [MLS000391683], the half-maximal effective concentration (EC50) was > 300 µM.

Consider `COc1ccc(Nc2nc(Nc3ccc(OC)cc3)nc(-n3[nH]c(=O)c(C)c3C)n2)cc1` [2-[4,6-bis(4-methoxyanilino)-1,3,5-triazin-2-yl]-3,4-dimethyl-1H-pyrazol-5-one], for which the EC50 was > 300 µM.

With `Cc1oc2ccc(OC(=O)c3cccs3)cc2c1C(=O)OC(C)C` [2-Methyl-5-(thiophene-2-carbonyloxy)-benzofuran-3-carboxylic acid isopropyl ester], the EC50 was > 300 µM.

Turning to `NC(=O)c1cccc2c1C(=O)N(C1CCCCC1)C2` [2-cyclohexyl-3-oxoisoindoline-4-carboxamide], the EC50 was > 300 µM.

In the case of `CCCc1nc2c([nH]1)c(=O)n(C)c(=O)n2C`, the EC50 is > 300 µM.

`CCN(CC)Cc1c(C(=O)NN=Cc2cccs2)nnn1-c1nonc1N` [1-(4-amino-1,2,5-oxadiazol-3-yl)-5-(diethylaminomethyl)-N-(thiophen-2-ylmethylideneamino)triazole-4-carboxamide] came in with an EC50 of 5.16 µM.

In the case of `C=CCNC(=O)c1ccc(OC)cc1` [4-methoxy-N-prop-2-enylbenzamide], the EC50 was > 300 µM.

`CCSc1nnc(-c2ccncc2)o1` [4-(5-Ethylsulfanyl-[1,3,4]oxadiazol-2-yl)-pyridine]: the EC50 is > 300 µM.

As to `Cc1ccnc(NC(=O)c2ccccc2[N+](=O)[O-])c1` [N-(4-methylpyridin-2-yl)-2-nitro-benzamide], the EC50 was > 300 µM.

The compound `Cn1c(SCC(=O)Nc2ccc(Br)cn2)nnc1C1CC1` [N-(5-bromopyridin-2-yl)-2-[(5-cyclopropyl-4-methyl-1,2,4-triazol-3-yl)sulfanyl]acetamide] displayed an EC50 of 20.7 µM.

Consider `CCOC(=O)c1c(-c2ccccc2)oc2ccc(OCC(=O)NNC(=O)CCCC(=O)O)cc12`, for which the EC50 is > 300 µM.

Turning to `Nc1nonc1-n1nnc(C(=O)NN=Cc2ccc(OCc3ccccc3)cc2)c1CN1CCCCC1` [MLS001075115], the EC50 is 8.87 µM.

Turning to `N#Cc1c(Nc2ccccc2)sc(C(=O)c2ccccc2)c1N` [4-azanyl-2-phenylazanyl-5-(phenylcarbonyl)thiophene-3-carbonitrile], the midpoint of the response, the EC50, lay at 52.9 µM.

Compound `CN1CCN(/N=C2\C(=O)Nc3ccc([N+](=O)[O-])cc32)CC1` [SMR000347605] returned an EC50 of 6.11 µM.

On to `Cc1nn(-c2ccccc2)c(Cl)c1C(=O)NCc1cccs1` [MLS000394567], for which the EC50 was > 300 µM.

Regarding `CC1(C)CC(=O)C=C(Nc2cccc(O)c2)C1` [MLS000108953], the EC50 was > 300 µM.

Turning to `O=NCc1ccc(Oc2cccc(Cl)c2)c([N+](=O)[O-])c1` [MLS000694755], the EC50 was found to be 38.2 µM.

On to `OCC1(Cc2ccccc2)CCN(Cc2ccc(-c3ccco3)cc2)CC1` [[1-[[4-(2-furanyl)phenyl]methyl]-4-(phenylmethyl)-4-piperidinyl]methanol], for which the EC50 is > 300 µM.

With `O=C(CSc1ccc2nnc(-c3cccs3)n2n1)N1CCCC1` [1-(1-pyrrolidinyl)-2-[(3-thiophen-2-yl-[1,2,4]triazolo[4,3-b]pyridazin-6-yl)thio]ethanone], the EC50 is > 300 µM.

Take `O=C(COc1ccccc1Cl)Nc1ccc2c(c1)OCCO2` [2-(2-chloranylphenoxy)-N-(2,3-dihydro-1,4-benzodioxin-6-yl)ethanamide]: the EC50 was > 300 µM.

With `CSc1nc(-c2cccs2)c(C#N)c(=O)[nH]1` [MLS000849828], the EC50 was > 300 µM.

In the case of `Cc1cc(C)c(C#N)c(SCC(=O)c2ccc(Cl)cc2Cl)n1` [2-[2-(2,4-dichlorophenyl)-2-oxidanylidene-ethyl]sulfanyl-4,6-dimethyl-pyridine-3-carbonitrile], the concentration for a half-maximal effect (EC50) was > 300 µM.

Consider `O=C(NN=Cc1ccc2nccnc2c1)c1ccncc1` [N-(quinoxalin-6-ylmethylideneamino)pyridine-4-carboxamide], for which the EC50 was > 300 µM.

For `COCCn1c(SCC(=O)Nc2ccc(S(N)(=O)=O)cc2)nc2ccccc21`, the EC50 is > 300 µM.

Take `CC[n+]1c(CC=Nc2ccccc2)sc2ccccc21`: the EC50 is > 300 µM.

On to `COC(=O)C(C)Oc1cc(OC(C)C(=O)OC)c2c(-c3ccccc3)cc(=O)oc2c1` (stereo not drawn) [methyl 2-[5-(1-methoxy-1-oxopropan-2-yl)oxy-2-oxo-4-phenylchromen-7-yl]oxypropanoate], for which the EC50 was > 300 µM.

Take `CCCc1cc(=O)oc2cc(C)c(CN3CCCC3)c(O)c12` [5-hydroxy-7-methyl-4-propyl-6-(1-pyrrolidinylmethyl)-2H-chromen-2-one]: the EC50 is > 300 µM.

Take `CCOC(=O)C(CC)Sc1ncnc2nc[nH]c12` (stereo not drawn): the concentration for a half-maximal effect (EC50) was > 300 µM.

Regarding `COCCCNC(=O)c1ccc(CS(=O)(=O)c2ccc(OC)cc2)o1` [5-[(4-methoxyphenyl)sulfonylmethyl]-N-(3-methoxypropyl)furan-2-carboxamide], the concentration giving a half-maximal response (EC50) was > 300 µM.

Compound `N=C(N)N/N=C1/C(=O)Nc2ccc(Br)cc21` [2-[(5-bromo-2-oxo-3-indolyl)amino]guanidine;hydrochloride] displayed a half-maximal effective concentration (EC50) of 31.4 µM.

For `Cc1cc(CNC(=O)c2cc(COc3c(F)cccc3F)on2)nn1C` [MLS000734261], the EC50 is > 300 µM.

On to `CCc1cc(=O)oc2cc(C)cc(O)c12` [4-ethyl-5-hydroxy-7-methyl-1-benzopyran-2-one], for which the EC50 is > 300 µM.

On to `CCNc1nc(N)nc(Oc2ccc(OCCOc3ccc(Cl)cc3Cl)nn2)n1` [6-[6-[2-(2,4-dichlorophenoxy)ethoxy]pyridazin-3-yl]oxy-2-N-ethyl-1,3,5-triazine-2,4-diamine], for which the concentration giving a half-maximal response (EC50) was > 300 µM.

With `COc1cc(OC)c(OC)cc1CNCC1COc2ccccc2O1` (stereo not drawn) [SMR000516658], the EC50 was > 300 µM.

Regarding `Cc1cc(OCC(F)(F)C(F)(F)C(F)(F)C(F)F)nc(N)n1` [SMR000122155], the EC50 was > 300 µM.

`COc1ccc(-c2nn(-c3ccccc3)cc2CN=O)cc1` [3-(4-methoxyphenyl)-1-phenyl-4-pyrazolecarboxaldehyde oxime] showed an EC50 of 0.432 µM.

Consider `COc1ccc2nc(C)cc(Nc3ccc(N4CCN(C)CC4)cc3)c2c1`, for which the EC50 was > 300 µM.

Regarding `COc1ccc(/C=C(/NC(=O)c2ccccc2)C(=O)NN=Cc2ccncc2)c(OC)c1` [N-[(E)-1-(2,4-dimethoxyphenyl)-3-oxo-3-[2-(pyridin-4-ylmethylidene)hydrazinyl]prop-1-en-2-yl]benzamide], the EC50 is > 300 µM.

Take `CCOC(=O)COC(=O)c1ccc(O)cc1` [(2-ethoxy-2-oxoethyl) 4-hydroxybenzoate]: the EC50 was > 300 µM.

Turning to `COc1ccc2c(c1)C(=O)C(=O)N2` [5-methoxy-2,3-dihydro-1H-indole-2,3-dione], the EC50 was > 300 µM.

Regarding `CCc1nnc(NC(=O)c2ccc3c(=O)n4c(nc3c2)CCCCC4)s1` [MLS001007070], the EC50 was > 300 µM.

In the case of `CCNc1nc(N)nc(-c2cc(Cl)ccc2OC)n1` [MLS000538218], the EC50 was > 300 µM.

On to `CC(CC(=O)Nc1ccc(F)c([N+](=O)[O-])c1)c1ccccc1` (stereo not drawn), for which the half-maximal effective concentration (EC50) was > 300 µM.

Consider `O=C1Nc2cc(C(=O)NCCCN3CCOCC3)ccc2S/C1=C/c1ccccc1F` [(2E)-2-[(2-fluorophenyl)methylidene]-N-(3-morpholin-4-ylpropyl)-3-oxo-4H-1,4-benzothiazine-6-carboxamide], for which the midpoint of the response, the EC50, lay at 18.2 µM.

As to `Cc1ncsc1CCSc1nc2ccccc2c(=O)n1C` [3-methyl-2-{[2-(4-methyl-1,3-thiazol-5-yl)ethyl]thio}-4(3H)-quinazolinone], the EC50 was determined as 18.8 µM.

Regarding `Cc1c(Br)c([N+](=O)[O-])nn1CCCC(=O)N1CCN(c2ccccc2)CC1` [SMR000206162], the EC50 is > 300 µM.

Consider `COc1ccc(-c2nn(-c3ccccc3)cc2C=NNC(N)=S)cc1OC` [[[3-(3,4-dimethoxyphenyl)-1-phenyl-4-pyrazolyl]methylideneamino]thiourea], for which the EC50 was > 300 µM.
